Key:
[1] = system: Veronica persica; assay: Test Example 4: herbicidal effect by soil treatment (symbol R); assay type: in vivo; conditions: for R (Veronica persica) herbicidal effect grade / Herbicidal effect grade, R: Veronica persica: application herbicide amount 320 g/ha
Outline: (§1)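 Seeds were sown in sterilized diluvial soil, covered with about 1.5 cm of soil, and the soil surface was sprayed with a water-diluted emulsion of the compound at a predetermined rate. Plants grew in a greenhouse at 25° C. to 30° C.; effects were scored visually 3 weeks after application.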

[2] = system: Chenopodium album; assay: Test Example 4: herbicidal effect by soil treatment (symbol O); assay type: in vivo; conditions: for O (Chenopodium album) herbicidal effect grade / Herbicidal effect grade, O: Chenopodium album: application herbicide amount 320 g/ha
Outline: as §1

[3] = system: Chenopodium album; assay: Test Example 5: herbicidal effect by foliage application, plastic box (symbol O); assay type: in vivo; conditions: 320 g/ha, 3 weeks after application
Outline: (§2)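 Sowing in sterilized diluvial soil, 14 days' greenhouse growth at 25° C. to 30° C., then uniform small-sprayer foliar application of aqueous emulsion dilution; plants scored three weeks afterwards.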

[4] = system: Stellaria media; assay: Test Example 5: herbicidal effect by foliage application, plastic box (symbol P); assay type: in vivo; conditions: 320 g/ha, 3 weeks after application
Outline: as §2

[5] = system: rice plant; assay: Test Example 5: effect on crop by foliage application, plastic box (symbol b); assay type: in vivo; conditions: 320 g/ha, 3 weeks after application
Outline: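 Greenhouse culture at 25° C. to 30° C. followed spot-like sowing into sterilized diluvial soil, with seed covered by roughly 1.5 cm of soil.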

[6] = system: Galium spurium; assay: Test Example 4: herbicidal effect by soil treatment (symbol Q); assay type: in vivo; conditions: for Q (Galium spurium) herbicidal effect grade / Herbicidal effect grade, Q: Galium spurium: application herbicide amount 320 g/ha
Outline: as §1

| SMILES | R (Veronica persica) herbicidal effect grade [1] | O (Chenopodium album) herbicidal effect grade [2] | O: Chenopodium album, herbicidal effect grade [3] | P: Stellaria media, herbicidal effect grade [4] | b: directly sowed rice plant, effect on crop grade [5] | melting point [°C] | Q (Galium spurium) herbicidal effect grade [6] | R: Veronica persica, herbicidal effect grade ([1]; 320 g/ha) | O: Chenopodium album, herbicidal effect grade ([2]; 320 g/ha) | O: Chenopodium album, herbicidal effect (criteria 0-5) [3] | P: Stellaria media, herbicidal effect (criteria 0-5) [4] | b: directly sowed rice plant, effect on crop (criteria 0-5) [5] | Q: Galium spurium, herbicidal effect grade ([6]; 320 g/ha) | Herbicidal effect grade, R: Veronica persica [1] | Herbicidal effect grade, O: Chenopodium album [2] | Herbicidal effect grade, Q: Galium spurium [6] |
| --- | --- | --- | --- | --- | --- | --- | --- | --- | --- | --- | --- | --- | --- | --- | --- | --- |
| CCC(CC1CC(O)=C(c2c(C)cc(C)cc2C)C1=O)=NOC (stereo not drawn) [1-038] | 0 (Herbicidal ratio of 5% or lower (almost no effect)) | 0 (Herbicidal ratio of 5% or lower (almost no effect)) | 0 (Herbicidal ratio of 5% or lower (almost no effect)) | 0 (Herbicidal ratio of 5% or lower (almost no effect)) | 5 (Herbicidal ratio of 90% or more (almost completely withered)) | 147 to 149 | 0 (Herbicidal ratio of 5% or lower (almost no effect)) |  |  |  |  |  |  |  |  |  |
| CC(CC1CC(O)=C(c2c(C)cc(C)cc2C)C1=O)=NOCC(F)(F)F (stereo not drawn) [1-028] |  |  | 3 (Herbicidal ratio of 40% or higher and lower than 70%) | 3 (Herbicidal ratio of 40% or higher and lower than 70%) | 5 (Herbicidal ratio of 90% or more (almost completely withered)) | 172 to 174 |  |  |  |  |  |  |  |  |  |  |
| CC(CC1CC(O)=C(c2c(C)cc(C)cc2C)C1=O)=NOc1ccccc1 (stereo not drawn) [1-057] | 0 (Herbicidal ratio of 5% or lower (almost no effect)) |  | 0 (Herbicidal ratio of 5% or lower (almost no effect)) | 0 (Herbicidal ratio of 5% or lower (almost no effect)) | 3 (Herbicidal ratio of 40% or higher and lower than 70%) | 149 to 151 |  |  |  |  |  |  |  |  |  |  |
| CC(CC1CC(O)=C(c2c(C)cc(C)cc2C)C1=O)=NO (stereo not drawn) [1-058] | 0 (Herbicidal ratio of 5% or lower (almost no effect)) | 0 (Herbicidal ratio of 5% or lower (almost no effect)) | 0 (Herbicidal ratio of 5% or lower (almost no effect)) | 0 (Herbicidal ratio of 5% or lower (almost no effect)) | 5 (Herbicidal ratio of 90% or more (almost completely withered)) | 95 to 98 |  |  |  |  |  |  |  |  |  |  |
| COCC(=O)OC1=C(c2c(C)cc(C)cc2C)C(=O)C(CC(C)=NOC)C1 (stereo not drawn) [1-093] |  |  |  |  |  |  |  | 0 (Herbicidal ratio of 5% or lower (almost no effect)) | 0 (Herbicidal ratio of 5% or lower (almost no effect)) | 0 (Herbicidal ratio of 5% or lower (almost no effect)) | 2 (Herbicidal ratio of 20% or higher and lower than 40%) | 5 (Herbicidal ratio of 90% or more (almost completely withered)) | 0 (Herbicidal ratio of 5% or lower (almost no effect)) |  |  |  |
| CON=C(C)CC1CC(OC(=O)COc2cccc(C#N)c2)=C(c2c(C)cc(C)cc2C)C1=O (stereo not drawn) [1-074] | 0 (Herbicidal ratio of 5% or lower (almost no effect)) | 0 (Herbicidal ratio of 5% or lower (almost no effect)) |  |  |  |  | 0 (Herbicidal ratio of 5% or lower (almost no effect)) |  |  | 2 (Herbicidal ratio of 20% or higher and lower than 40%) | 1 (Herbicidal ratio of 5% or higher and lower than 20%) | 5 (Herbicidal ratio of 90% or more (almost completely withered)) |  |  |  |  |
| CON=CCC1CC(O)=C(c2c(C)cc(C)cc2C)C1=O (stereo not drawn) [1-050] |  | 0 (Herbicidal ratio of 5% or lower (almost no effect)) | 0 (Herbicidal ratio of 5% or lower (almost no effect)) | 0 (Herbicidal ratio of 5% or lower (almost no effect)) | 5 (Herbicidal ratio of 90% or more (almost completely withered)) | 96 to 108 |  |  |  |  |  |  |  |  |  |  |
| CON=C(CC1CC(O)=C(c2c(C)cc(C)cc2C)C1=O)C(C)(C)C (stereo not drawn) [1-059] |  |  | 0 (Herbicidal ratio of 5% or lower (almost no effect)) | 0 (Herbicidal ratio of 5% or lower (almost no effect)) | 4 (Herbicidal ratio of 70% or higher and lower than 90%) | 163 to 164 |  |  |  |  |  |  |  |  |  |  |
| CON=C(CC1CC(O)=C(c2c(C)cc(C)cc2C)C1=O)C(C)C (stereo not drawn) [1-048] | 0 (Herbicidal ratio of 5% or lower (almost no effect)) | 0 (Herbicidal ratio of 5% or lower (almost no effect)) | 3 (Herbicidal ratio of 40% or higher and lower than 70%) | 3 (Herbicidal ratio of 40% or higher and lower than 70%) | 5 (Herbicidal ratio of 90% or more (almost completely withered)) |  | 0 (Herbicidal ratio of 5% or lower (almost no effect)) |  |  |  |  |  |  |  |  |  |
| CCON=C(C)CC1CC(O)=C(c2c(C)cc(C)cc2C)C1=O (stereo not drawn) [1-003] |  |  | 3 (Herbicidal ratio of 40% or higher and lower than 70%) | 2 (Herbicidal ratio of 20% or higher and lower than 40%) | 5 (Herbicidal ratio of 90% or more (almost completely withered)) | 135 to 140 | 0 (Herbicidal ratio of 5% or lower (almost no effect)) |  |  |  |  |  |  |  |  |  |
| CC(CC1CC(O)=C(c2c(C)cc(Br)cc2C)C1=O)=NOCC(=O)N(C)C (mixture of isomers) [9-029] |  |  | 0 (Herbicidal ratio of 5% or lower (almost no effect)) | 0 (Herbicidal ratio of 5% or lower (almost no effect)) | 3 (Herbicidal ratio of 40% or higher and lower than 70%) |  |  |  |  |  |  |  |  | 0 (Herbicidal ratio of 5% or lower (almost no effect)) | 0 (Herbicidal ratio of 5% or lower (almost no effect)) | 0 (Herbicidal ratio of 5% or lower (almost no effect)) |
| CON=C(CC1CC(O)=C(c2c(C)cc(C)cc2C)C1=O)c1ccccc1 (stereo not drawn) [1-047] | 0 (Herbicidal ratio of 5% or lower (almost no effect)) | 0 (Herbicidal ratio of 5% or lower (almost no effect)) | 0 (Herbicidal ratio of 5% or lower (almost no effect)) | 0 (Herbicidal ratio of 5% or lower (almost no effect)) | 4 (Herbicidal ratio of 70% or higher and lower than 90%) |  | 0 (Herbicidal ratio of 5% or lower (almost no effect)) |  |  |  |  |  |  |  |  |  |
| CC(CC1CC(O)=C(c2c(C)cc(C)cc2C)C1=O)=NOC(C)(C)C (stereo not drawn) [1-053] | 0 (Herbicidal ratio of 5% or lower (almost no effect)) | 0 (Herbicidal ratio of 5% or lower (almost no effect)) | 1 (Herbicidal ratio of 5% or higher and lower than 20%) | 0 (Herbicidal ratio of 5% or lower (almost no effect)) | 5 (Herbicidal ratio of 90% or more (almost completely withered)) | 145 to 147 |  |  |  |  |  |  |  |  |  |  |
| CC#Cc1cc(C)c(C2=C(OC(=O)COc3ccccc3)CC(CC(=NOC)C(C)C)C2=O)c(C)c1 (stereo not drawn) [9-003] |  |  | 3 (Herbicidal ratio of 40% or higher and lower than 70%) | 3 (Herbicidal ratio of 40% or higher and lower than 70%) | 5 (Herbicidal ratio of 90% or more (almost completely withered)) |  |  |  |  |  |  |  |  | 0 (Herbicidal ratio of 5% or lower (almost no effect)) | 0 (Herbicidal ratio of 5% or lower (almost no effect)) | 0 (Herbicidal ratio of 5% or lower (almost no effect)) |
| CC(CC1CC(O)=C(c2c(C)cc(C)cc2C)C1=O)=NOC(C)C (stereo not drawn) [1-052] | 0 (Herbicidal ratio of 5% or lower (almost no effect)) | 0 (Herbicidal ratio of 5% or lower (almost no effect)) | 1 (Herbicidal ratio of 5% or higher and lower than 20%) | 0 (Herbicidal ratio of 5% or lower (almost no effect)) | 5 (Herbicidal ratio of 90% or more (almost completely withered)) | 93 to 95 |  |  |  |  |  |  |  |  |  |  |

— patent US11000033B2, “Ketone or oxime compound, and herbicide” (NISSAN CHEMICAL CORPORATION, priority 2014, dated 2021)
